# How the values were obtained:
# [1] = molecular target: T1, human B1R receptor (hB1R) (Homo sapiens, UniProt P46663); assay: FLIPR Ca2+ assay on hB1R-transfected CHO K1 cells, antagonistic action; format: cell-based; conditions: CHO-K1, 10 μM test substance; agonist Lys-Des-Arg9-bradykinin 0.5 nM; % of maximum achievable inhibition; read-out: hB1R [10 μM] % inhibition
# T1 construct: host or cells: CHO K1 cells
# T1 sequence (P46663 1-353): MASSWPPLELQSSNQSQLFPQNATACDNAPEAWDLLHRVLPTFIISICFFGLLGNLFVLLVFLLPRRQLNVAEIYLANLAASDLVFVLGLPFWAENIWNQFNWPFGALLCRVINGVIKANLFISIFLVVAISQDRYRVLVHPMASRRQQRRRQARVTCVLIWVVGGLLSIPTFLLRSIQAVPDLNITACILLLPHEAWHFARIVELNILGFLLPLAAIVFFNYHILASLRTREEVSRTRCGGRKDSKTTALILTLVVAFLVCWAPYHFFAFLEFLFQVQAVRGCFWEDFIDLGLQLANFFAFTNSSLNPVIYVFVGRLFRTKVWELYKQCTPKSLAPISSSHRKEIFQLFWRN
# [2] = molecular target: T2, B1R receptor of the rat (rB1R) (Rattus norvegicus, UniProt P97583); assay: FLIPR Ca2+ assay on rB1R-transfected CHO K1 cells, antagonistic action; format: cell-based; conditions: CHO-K1, 10 μM test substance; agonist Des-Arg9-bradykinin 100 nM; % of maximum achievable inhibition; read-out: rB1R [10 μM] % inhibition
# T2 construct: host or cells: CHO K1 cells
# T2 sequence (P97583 1-337): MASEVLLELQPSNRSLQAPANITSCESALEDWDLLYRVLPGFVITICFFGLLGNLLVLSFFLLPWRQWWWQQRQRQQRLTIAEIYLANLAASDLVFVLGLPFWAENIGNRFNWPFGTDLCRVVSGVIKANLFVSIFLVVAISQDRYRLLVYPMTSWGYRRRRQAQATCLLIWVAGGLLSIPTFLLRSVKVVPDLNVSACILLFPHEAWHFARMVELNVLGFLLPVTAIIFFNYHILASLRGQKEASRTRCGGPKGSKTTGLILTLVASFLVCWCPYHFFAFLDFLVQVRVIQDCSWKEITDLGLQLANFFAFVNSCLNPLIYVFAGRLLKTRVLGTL
Structure (SMILES),inhibition at 10 µM [1] [%],inhibition at 10 µM [2] [%]
"CN(CCCC1CCC(c2ccccc2)(N2CCCC2)CC1)C(=O)COCC1CCc2ccccc2N1S(=O)(=O)c1ccc(Cl)c(Cl)c1 (centres unmarked) [Compound 133, 2-((1-(3,4-dichlorophenylsulfonyl)-1,2,3,4-tetrahydroquinolin-2-yl)methoxy)-N-methyl-N-(3-(4-phenyl-4-(pyrrolidin-1-yl)cyclohexyl)propyl)acetamide]",92,42
"CN(CCCC1CCC(CCc2ccccc2)(N2CCCC2)CC1)C(=O)CC1CCCCN1S(=O)(=O)c1cccc(C(F)(F)F)c1 (centres unmarked) [Compound 134, N-methyl-N-(3-(4-phenethyl-4-(pyrrolidin-1-yl)cyclohexyl)propyl)-2-(1-(3-(trifluoromethyl)phenylsulfonyl)piperidin-2-yl)acetamide]",102,38
"Cc1cc(S(=O)(=O)N2CCCCC2CCC(=O)N2CCC(c3cccc(F)c3)(N3CCN(C)CC3)CC2)c(C)cc1Cl (centres unmarked) [Compound 135, 3-(1-(4-chloro-2,5-dimethylphenylsulfonyl)piperidin-2-yl)-1-(4-(3-fluorophenyl)-4-(4-methylpiperazin-1-yl)piperidin-1-yl)propan-1-one]",104,37
"Cc1cc(S(=O)(=O)N2CCCCC2CCC(=O)N(C)CCCC2CCC(c3ccccc3)(N3CCCC3)CC2)c(C)cc1Cl (centres unmarked) [Compound 136, 3-(1-(4-chloro-2,5-dimethylphenylsulfonyl)piperidin-2-yl)-N-methyl-N-(3-(4-phenyl-4-(pyrrolidin-1-yl)cyclohexyl)propyl)propanamide]",99,32
"Cc1cc(S(=O)(=O)N2CCCCC2CCC(=O)N2CCC(CCc3ccccc3)(N(C)C)CC2)c(C)cc1Cl (centres unmarked) [Compound 137, 3-(1-(4-chloro-2,5-dimethylphenylsulfonyl)piperidin-2-yl)-1-(4-(dimethylamino)-4-phenethylpiperidin-1-yl)propan-1-one]",104,30
"Cc1cc(S(=O)(=O)N2CCCCC2CCC(=O)N2CCC(c3ccc(F)cc3)(N3CCN(C)CC3)CC2)c(C)cc1Cl (centres unmarked) [Compound 138, 3-(1-(4-chloro-2,5-dimethylphenylsulfonyl)piperidin-2-yl)-1-(4-(4-fluorophenyl)-4-(4-methylpiperazin-1-yl)piperidin-1-yl)propan-1-one]",102,28
"Cc1cc(S(=O)(=O)N2CCCCC2CCC(=O)N(C)CCC2CCC(c3ccccc3)(N3CCCC3)CC2)c(C)cc1Cl (centres unmarked) [Compound 139, 3-(1-(4-chloro-2,5-dimethylphenylsulfonyl)piperidin-2-yl)-N-methyl-N-(2-(4-phenyl-4-(pyrrolidin-1-yl)cyclohexyl)ethyl)propanamide]",105,24
"Cc1cc(S(=O)(=O)N2CCCCC2CCC(=O)N(C)CC2CCC(c3ccccc3)(N3CCCC3)CC2)c(C)cc1Cl (centres unmarked) [Compound 140, 3-(1-(4-chloro-2,5-dimethylphenylsulfonyl)piperidin-2-yl)-N-methyl-N-((4-phenyl-4-(pyrrolidin-1-yl)cyclohexyl)methyl)propanamide]",103,21
"Cc1cc(S(=O)(=O)N2CCCCC2CCC(=O)N(C)CC2CCC(CCc3ccccc3)(N3CCCC3)CC2)c(C)cc1Cl (centres unmarked) [Compound 141, 3-(1-(4-chloro-2,5-dimethylphenylsulfonyl)piperidin-2-yl)-N-methyl-N-((4-phenethyl-4-(pyrrolidin-1-yl)cyclohexyl)methyl)propanamide]",104,20
"O=C(COCC1CCCCN1S(=O)(=O)c1c(Cl)cc(Cl)cc1Cl)NC1CCC(c2ccccc2)(N2CCCC2)CC1 (centres unmarked) [Compound 142, N-(4-phenyl-4-(pyrrolidin-1-yl)cyclohexyl)-2-((1-(2,4,6-trichlorophenylsulfonyl)piperidin-2-yl)methoxy)acetamide]",92,113
"COc1cc(C)c(S(=O)(=O)N2CCCCC2COCC(=O)N(C)CC2CCC(Cc3ccccc3)(N3CCN(C)CC3)CC2)c(C)c1 (centres unmarked) [Compound 143, N-((4-benzyl-4-(4-methylpiperazin-1-yl)cyclohexyl)methyl)-2-((1-(4-methoxy-2,6-dimethylphenylsulfonyl)piperidin-2-yl)methoxy)-N-methylacetamide]",103,111
"COc1cc(C)c(S(=O)(=O)N2CCCCC2COCC(=O)N(C)CC2CCC(CCc3ccccc3)(N3CCN(C)CC3)CC2)c(C)c1 (centres unmarked) [Compound 144, 2-((1-(4-methoxy-2,6-dimethylphenylsulfonyl)piperidin-2-yl)methoxy)-N-methyl-N-((4-(4-methylpiperazin-1-yl)-4-phenethylcyclohexyl)methyl)acetamide]",103,111
"COc1cc(C)c(S(=O)(=O)N2CCCC2COCC(=O)NC2CCC(c3ccccc3)(N3CCCC3)CC2)c(C)c1 (centres unmarked) [Compound 145, 2-((1-(4-methoxy-2,6-dimethylphenylsulfonyl)pyrrolidin-2-yl)methoxy)-N-(4-phenyl-4-(pyrrolidin-1-yl)cyclohexyl)acetamide]",92,110
"O=C(COCC1CCCN1S(=O)(=O)c1c(Cl)cc(Cl)cc1Cl)NC1CCC(c2ccccc2)(N2CCCC2)CC1 (centres unmarked) [Compound 146, N-(4-phenyl-4-(pyrrolidin-1-yl)cyclohexyl)-2-((1-(2,4,6-trichlorophenylsulfonyl)pyrrolidin-2-yl)methoxy)acetamide]",64,108
"COc1cc(C)c(S(=O)(=O)N2CCCCC2COCC(=O)NC2CCC(c3ccccc3)(N3CCCC3)CC2)c(C)c1 (centres unmarked) [Compound 147, 2-((1-(4-methoxy-2,6-dimethylphenylsulfonyl)piperidin-2-yl)methoxy)-N-(4-phenyl-4-(pyrrolidin-1-yl)cyclohexyl)acetamide]",94,108
"COc1cc(C)c(S(=O)(=O)N2CCCC2COCC(=O)N(C)CC2CCC(CCc3ccccc3)(N3CCN(C)CC3)CC2)c(C)c1 (centres unmarked) [Compound 148, 2-((1-(4-methoxy-2,6-dimethylphenylsulfonyl)pyrrolidin-2-yl)methoxy)-N-methyl-N-((4-(4-methylpiperazin-1-yl)-4-phenethylcyclohexyl)methyl)acetamide]",102,106
"COc1cc(C)c(S(=O)(=O)N2CCCCC2COCC(=O)NC2CCC(Cc3ccccc3)(N3CCCC3)CC2)c(C)c1 (centres unmarked) [Compound 149, N-(4-benzyl-4-(pyrrolidin-1-yl)cyclohexyl)-2-((1-(4-methoxy-2,6-dimethylphenylsulfonyl)piperidin-2-yl)methoxy)acetamide]",103,105
"COc1cc(C)c(S(=O)(=O)N(C)CCOCC(=O)NC2CCC(c3ccccc3)(N3CCCC3)CC2)c(C)c1 (centres unmarked) [Compound 150, 2-(2-(4-methoxy-N,2,6-trimethylphenylsulfonamido)ethoxy)-N-(4-phenyl-4-(pyrrolidin-1-yl)cyclohexyl)acetamide]",102,104
"COc1cc(C)c(S(=O)(=O)N2CCCC2COCC(=O)NC2CCC(Cc3ccccc3)(N3CCCC3)CC2)c(C)c1 (centres unmarked) [Compound 151, N-(4-benzyl-4-(pyrrolidin-1-yl)cyclohexyl)-2-((1-(4-methoxy-2,6-dimethylphenylsulfonyl)pyrrolidin-2-yl)methoxy)acetamide]",90,103
"COc1cc(C)c(S(=O)(=O)N2CCCC2COCC(=O)NCC2CCC(c3ccccc3)(N3CCOCC3)CC2)c(C)c1 (centres unmarked) [Compound 152, 2-((1-(4-methoxy-2,6-dimethylphenylsulfonyl)pyrrolidin-2-yl)methoxy)-N-((4-morpholino-4-phenylcyclohexyl)methyl)acetamide]",84,102
"COc1cc(C)c(S(=O)(=O)N2CCC(OCC(=O)NC3CCC(c4ccccc4)(N4CCCC4)CC3)C2)c(C)c1 (centres unmarked) [Compound 153, 2-(1-(4-methoxy-2,6-dimethylphenylsulfonyl)pyrrolidin-3-yloxy)-N-(4-phenyl-4-(pyrrolidin-1-yl)cyclohexyl)acetamide]",97,102
"COc1cc(C)c(S(=O)(=O)N2CCCC2COCC(=O)N(C)CC2CCC(Cc3ccccc3)(N3CCN(C)CC3)CC2)c(C)c1 (centres unmarked) [Compound 154, N-((4-benzyl-4-(4-methylpiperazin-1-yl)cyclohexyl)methyl)-2-((1-(4-methoxy-2,6-dimethylphenylsulfonyl)pyrrolidin-2-yl)methoxy)-N-methylacetamide]",95,101

# Source: patent publication US20090253669A1, “Substituted Sulfonamide Compounds” (GRUENENTHAL GmbH, priority 2008, published 2009)
